Results published in ChEMBL document CHEMBL5500393, “Discovery and Optimization of Novel SaFabI Inhibitors as Specific Therapeutic Agents for MRSA Infection” (J Med Chem, 2024).
≈ marks a conversion by molar mass, not a printed value. Calls of active or inactive are those of the source. No cut-off for these calls is given here.

Tests used:
[1] = molecular target: T1, Enoyl-[acyl-carrier-protein] reductase [NADPH] FabI (Staphylococcus aureus, UniProt Q6GI75); test: Inhibition of N-terminal his 6 tagged Staphylococcus aureus Fabi (1 to […] residues) expressed in Escherichia coli BL21 incubated for 30 mins in presence of NADPH by fluorescence based microplate reader analysis
T1 sequence (Q6GI75 whole entry): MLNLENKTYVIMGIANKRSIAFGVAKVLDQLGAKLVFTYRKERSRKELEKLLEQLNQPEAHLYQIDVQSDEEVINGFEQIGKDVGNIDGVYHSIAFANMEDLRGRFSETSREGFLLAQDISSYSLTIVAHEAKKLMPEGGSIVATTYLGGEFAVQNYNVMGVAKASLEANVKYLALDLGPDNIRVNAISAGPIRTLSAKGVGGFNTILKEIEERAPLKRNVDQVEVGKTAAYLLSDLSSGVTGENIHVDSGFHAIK

Acinetobacter baumannii = test: Antimicrobial activity against Acinetobacter baumannii ATCC19606 measured after 24 hrs by CLSI protocol based microdilution method; type: functional
Cell membrane = test: Induction of cell membrane permeability in methicillin-resistant Staphylococcus aureus ATCC33591 assessed as fold increase in fluorescence intensity at 1 times MIC measured after 30 mins by 7-AAD staining based analysis; type: cell membranes
Staphylococcus aureus [2] = test: Antimicrobial activity against […] Staphylococcus aureus USA300 measured after 24 hrs by CLSI protocol based microdilution method; type: functional
[3] = Acute toxicity in female BALB/c mouse assessed as effect on spleen at 800 mg/kg, po measured after 14 days by H and E staining based analysis; type: organism-based; conditions: in vivo, 336 h, time 14 day
[4] = Acute toxicity in female BALB/c mouse assessed as effect on ALT level in serum at 800 mg/kg, po measured after 14 days; type: organism-based; conditions: in vivo, 336 h, time 14 day
[5] = Acute toxicity in female BALB/c mouse assessed as abnormal behaviour at 800 mg/kg, po measured after 14 days; type: organism-based; conditions: in vivo, 336 h, time 14 day
[6] = Half life in female Sprague-Dawley rat at 5 mg/kg, iv measured upto 24 hrs by LC-MS analysis; type: ADME, organism-based; conditions: in vivo
[7] = molecular target: T2, Enoyl-[acyl-carrier-protein] reductase [NADPH] FabI (Staphylococcus aureus) (UniProt Q6GI75); test: Binding affinity to N-terminal his 6 tagged Staphylococcus aureus Fabi (1 to […] residues) expressed in Escherichia coli BL21 assessed as change in melting temperature at 80 uM incubated for 20 mins in presence of NADPH by differential scanning fluorescence assay
T2 sequence (whole entry): T1 sequence (Q6GI75 whole entry)

Staphylococcus aureus [8] = test: In vivo antibacterial activity against methicilin-resistant Staphylococcus aureus ATCC33591 infected in BALB/c mouse skin infection model assessed as decrease in lesion size at 10 mg/kg administered daily for 4 days (reference value: 43.4 mm2); type: functional; conditions: time 4 day
Staphylococcus aureus [9] = test: In vivo antibacterial activity against methicilin-resistant Staphylococcus aureus ATCC33591 infected in BALB/c mouse skin infection model assessed as alleviation of skin lesions at 10 mg/kg administered daily for 4 days by H and E staining based analysis; type: functional, organism-based; conditions: time 4.0 day
Staphylococcus aureus [10] = test: In vivo antibacterial activity against methicilin-resistant Staphylococcus aureus ATCC33591 infected in BALB/c mouse skin infection model assessed as as appearance of inflammatory cell infiltrates at 10 mg/kg administered daily for 4 days by H and E staining based analysis; type: functional, organism-based; conditions: time 4.0 day
Staphylococcus aureus [11] = test: In vivo antibacterial activity against methicilin-resistant Staphylococcus aureus ATCC33591 infected in BALB/c mouse skin infection model assessed as reduction in bacterial load administered daily for 4 days; type: functional, organism-based; conditions: dose 5-20 mg/kg, time 4.0 day
Staphylococcus aureus [12] = test: In vivo antibacterial activity against methicilin-resistant Staphylococcus aureus ATCC33591 infected in BALB/c mouse skin infection model assessed as reduction in bacterial load at 10 mg/kg administered daily for 4 days; type: functional; conditions: time 4 day
Staphylococcus aureus [13] = test: In vivo antibacterial activity against methicilin-resistant Staphylococcus aureus ATCC33591 infected in BALB/c mouse skin infection model assessed as effect on body weight loss at 5 to 20 mg/kg administered daily for 4 days; type: functional, organism-based; conditions: dose 5-20 mg/kg, time 4.0 day
Staphylococcus aureus [14] = test: In vivo antibacterial activity against methicilin-resistant Staphylococcus aureus ATCC33591 infected in BALB/c mouse skin infection model assessed as reduction in skin lesions at 10 mg/kg administered daily for 4 days (reference value: 51.6 mm2); type: functional; conditions: time 4 day
Staphylococcus aureus [15] = test: In vivo antibacterial activity against methicilin-resistant Staphylococcus aureus ATCC33591 infected in BALB/c mouse skin infection model assessed as reduction in number of inflammatory cells at 20 mg/kg administered daily for 4 days by H and E staining based analysis; type: functional, organism-based; conditions: time 4.0 day
Staphylococcus aureus [16] = test: In vivo antibacterial activity against methicilin-resistant Staphylococcus aureus ATCC33591 infected in BALB/c mouse skin infection model assessed as decrease in lesion size at 20 mg/kg administered daily for 4 days (reference value: 43.4 mm2); type: functional; conditions: time 4 day
Staphylococcus aureus [17] = test: In vivo antibacterial activity against methicilin-resistant Staphylococcus aureus ATCC33591 infected in BALB/c mouse skin infection model assessed as damaged tissue at 10 mg/kg administered daily for 4 days by H and E staining based analysis; type: functional, organism-based; conditions: time 4.0 day
Staphylococcus aureus [18] = test: In vivo antibacterial activity against methicilin-resistant Staphylococcus aureus ATCC33591 infected in BALB/c mouse skin infection model assessed as log reduction in bacterial count at 10 mg/kg administered daily for 4 days; type: functional; conditions: time 4 day
Staphylococcus aureus [19] = test: In vivo antibacterial activity against methicilin-resistant Staphylococcus aureus ATCC33591 infected in BALB/c mouse skin infection model assessed as decrease in lesion size at 5 mg/kg administered daily for 4 days (reference value: 43.4 mm2); type: functional; conditions: time 4 day
Staphylococcus aureus [20] = test: In vivo antibacterial activity against methicilin-resistant Staphylococcus aureus ATCC33591 infected in BALB/c mouse skin infection model assessed as reduction in area of injury at 20 mg/kg administered daily for 4 days by H and E staining based analysis; type: functional, organism-based; conditions: time 4.0 day
Staphylococcus aureus [21] = test: In vivo antibacterial activity against methicilin-resistant Staphylococcus aureus ATCC33591 infected in BALB/c mouse skin infection model assessed as reduction in bacterial load at 20 mg/kg administered daily for 4 days; type: functional; conditions: time 4 day
Staphylococcus aureus [22] = test: In vivo antibacterial activity against methicilin-resistant Staphylococcus aureus ATCC33591 infected in BALB/c mouse skin infection model assessed as reduction in bacterial load at 5 mg/kg administered daily for 4 days; type: functional; conditions: time 4 day
Staphylococcus aureus [23] = test: In vivo antibacterial activity against methicilin-resistant Staphylococcus aureus ATCC33591 infected in BALB/c mouse skin infection model assessed as adverse effect at 5 to 20 mg/kg administered daily for 4 days; type: functional, organism-based; conditions: dose 5-20 mg/kg, time 4.0 day
Staphylococcus aureus [24] = test: In vivo antibacterial activity against methicilin-resistant Staphylococcus aureus ATCC33591 infected in BALB/c mouse skin infection model assessed as restoration of cell morphology at 20 mg/kg administered daily for 4 days by H and E staining based analysis; type: functional, organism-based; conditions: time 4.0 day

With `COc1c(Br)cccc1N1CC(c2nc3ccccc3n2C)CC1=O` (centres undefined) the IC50 [1] was 199 nM, the MIC (Acinetobacter baumannii) was greater than 32 µg/mL and the fold change (FC) (Cell membrane) was 1.8. The MIC (Staphylococcus aureus [2]) was 1 µg/mL (≈ 2.5 µM), the Activity [3] was “Non-Toxic” and the Activity [4] was “Non-Toxic”. The Activity [5] was “Non-Toxic” and the t1/2 [6] was 1.1 h.

In the case of `Cc1c(Br)cccc1N1CC(c2nc3ccccc3n2C)CC1=O` (centres undefined), the IC50 [1] is reported as 174 nM, the ΔTm [7] is reported as 11.8 °C and the Activity (Staphylococcus aureus [8]) is reported as 20.9 mm2. The Activity (Staphylococcus aureus [9]) was “Active”, the Activity (Staphylococcus aureus [10]) was “Active” and the Activity (Staphylococcus aureus [11]) was “Dose-Dependent Effect”. For the same compound, the MIC (Acinetobacter baumannii) was greater than 32 µg/mL, the “log(activity)” value (Staphylococcus aureus [12]) was -4.5 and the fold change (FC) (Cell membrane) was 1.9. The Activity (Staphylococcus aureus [13]) was “inactive”, the Activity (Staphylococcus aureus [14]) was 27.5 mm2 and the Activity (Staphylococcus aureus [15]) was “Active”. For the same compound, the Activity (Staphylococcus aureus [16]) was 13 mm2, the MIC (Staphylococcus aureus [2]) was 1 µg/mL (≈ 2.6 µM) and the Activity [3] was “Non-Toxic”. The Activity (Staphylococcus aureus [17]) was “Active”, the “log(activity)” value (Staphylococcus aureus [18]) was 4.9 and the Activity (Staphylococcus aureus [19]) was 31.1 mm2. The Activity [4] was “Non-Toxic”, the Activity [5] was “Non-Toxic” and the Activity (Staphylococcus aureus [20]) was “Active”. For the same compound, the “log(activity)” value (Staphylococcus aureus [21]) was -6.2, the “log(activity)” value (Staphylococcus aureus [22]) was -1.8 and the t1/2 [6] was 1.1 h. For the same compound, the Activity (Staphylococcus aureus [23]) was “inactive” and the Activity (Staphylococcus aureus [24]) was “Active”.
